Columns and labels:
[1] = Absorbance spectra of free and Ca2+-bound chelators; assay type: physicochemical
Procedure: The titration was done at 22° C. with 10 mL of 100 mM KCl, 10 mM K-MOPS, 10 mM K2 H.HEEDTA, and 14 […] diazo-2 as starting materials, adjusting the pH to 7.24, recording the spectrum, and then discarding 1.0 mL of this solution and replacing with 1.0 mL of 100 mM KCl, 10 mM K.MOPS, 10 mM KCa.HEEDTA, 14 μM diazo-2, readjusting the pH to 7.24, and recording the spectra, which was then in 9 mM K2H.HEEDTA. Subsequent iterations to reach n mM KCa.HEEDTA, (10-n) mM HEEDTA, n=2-10, were done by discarding 10.0/(11-n) mL and replacing with equal volumes of the 10mM KCa.HEEDTA, 14 μM diazo-2 stock. After n=10 had been reached to give free Ca^2+ between 10^-5 and 10^-4 M, addition of 1 mM CaCl2 had no further effect on the spectrum. For clarity only six spectra are including in the figure, n=0, 2, 4, 6, 8, and 10. Each spectrum is labeled with the calculated free [Ca^2+ ] imposed by the HEEDTA buffer, assuming a log effective stability constant of 5.55 at pH 7.24.
The phenylacetate was produced by irradiating a 30 μM solution of diazo-2 in 100 mM KCl, 10 mM Tris.HCl, 10 mM K2 H.HEEDTA, pH 8.40, with Spectroline lamp at 365 nm to completion. The titration was then performed as in A but the pH was maintained at 8.40, at which the calculated log effective stability is constant for HEEDTA was 6.60.
Proton magnetic resonance spectra (^1 H NMR) were recorded on a Varian EM-390 90-MHz spectrometer in CDCl3 unless otherwise noted, and the chemical shifts are given in δ values relative to tetramethylsilane. Ultraviolet (UV) absorbance spectra were recorded on a Cary 210 or a Perkin-Elmer Lambda Array 3840 spectrophotometer at 20°±2° C. Melting points are in Centigrade and are uncorrected. Elemental analyses were performed by the Microanalytical Laboratory in the Department of Chemistry, University of California, Berkeley, Calif.

[2] = Ca2+ affinity by UV spectra during titration of EGTA or HEEDTA buffers; assay type: binding; conditions: after photolysis; 0.25M ionic strength (0.2M KCl, 0.05M NaCl), 18° C.
cells = assay: Effect in cells of microinjected chelator on Ca2+ after photolysis; assay type: cell-based; conditions: microinjected into cells
[3] = Chemical stability in aqueous base or acid; assay type: physicochemical
Text: Diazo-2 tetramethyl ester, Compound 3J, was saponified to the tetra-anion by dissolution in methanol (gentle heat), addition of an excess of aqueous 1M potassium hydroxide solution and keeping at room temperature several hours, preferably overnight. […] The purity of diazo-2 solutions can be determined by measuring the extent of absorbance change on complete photolysis (FIG. 1B) as contaminants contribute absorbance at 355 nm. Diazo-1, -3, and -4 esters were saponified analogously.

[4] = Covalent modification of lysine by photochemical intermediates (HPLC); conditions: pH 7.2
Procedure: To study the extent to which biological substrates are covalently modified by reactive intermediates generated by the photolysis of the diazoketones,100 μM diazo-3 in the presence of 10 mM phosphate and either 100 mM KCl or 100 mM lysine.HCl, at pH 7.2 was photolyzed. The photolysates were analyzed by HPLC (Waters Associates, Inc., Milford, Mass.; C-18 column, Supelco, Inc., Bellefonte, Pa.), with 10 mM KH2 PO4 /K2 HPO4 buffer at pH 7.2 as eluting solvent. The absorbance of the eluate at 254 nm was monitored. Before being injected onto the column, concentrated stock solutions of either KCl or lysine.HCl were added to the photolysate to insure that the electrolyte composition of the injected samples were identical. Thus, 10 μL of 1M KCl were added to 100 μL of the samples of diazo-3 photolyzed in lysine.HCl, while 10 μL of 1M lysine.HCl were added to 100 μL of the sample of diazo-3 photolyzed in KCl.

| SMILES | εmax, +Ca2+ ([1]; +Ca2+, at λmax) | λmax, +Ca2+ ([1]; +Ca2+, dominant peak at longest wavelength) [nm] | εmax, free ([1]; free (zero Ca2+), at λmax) | shift of absorbance to shorter wavelengths on binding Ca2+ ([1]; on binding Ca2+) [nm] | Kd [2] [nM] | sequestering Ca2+ after photolysis (in words) (cells) | stability on concentration to a solid (in words) ([3]; from dilute aqueous base, concentrated to a solid) | stability in dilute aqueous base (in words) ([3]; methanol/aqueous KOH, room temperature, several hours to overnight) | stability in strong aqueous base or acid (in words) ([3]; pH>13 or pH<4) | λmax, free ([1]; free (zero Ca2+), dominant peak at longest wavelength) [nm] | covalently modified lysines ([4]; 100 μM diazo-3, 200 mM lysine.HCl (so in the source)) [lysines in 10^5] | frequency of covalent lysine modification ([4]; 100 μM diazo-3 photolyzed in 100 mM lysine.HCl) | absorbance under new (lysine-modified) peak ([4]; 100 μM diazo-3 photolyzed in 100 mM lysine.HCl, % of total absorbance) | modified lysine produced ([4]; 100 μM diazo-3 photolyzed in 100 mM lysine.HCl, calculated) |
| --- | --- | --- | --- | --- | --- | --- | --- | --- | --- | --- | --- | --- | --- | --- |
| Cc1ccc(N(CC(=O)O)CC(=O)O)c(OCCOc2cc(C(=O)C=[N+]=[N-])ccc2N(CC(=O)O)CC(=O)O)c1 [diazo-2, 1-(2-bis(carboxymethyl)amino-5-methyl) phenoxy-2-(2-bis(carboxymethyl)amino-5-(diazoacetyl)phenoxy) ethane] | 20.2 10^-3, M^-1 cm^-1 | 320 | 22.2 10^-3, M^-1 cm^-1 | 50 | 150 | effective in sequestering Ca^2+ after photolysis | decomposes and becomes light-insensitive | stable | unstable |  |  |  |  |  |
| COc1cc(C(=O)C=[N+]=[N-])ccc1N(CC(=O)O)CC(=O)O [diazo-3, 2-methoxy-4-(diazoacetyl)aniline-N, N-diacetic acid] |  |  | 22.8 10^-3, M^-1 cm^-1 |  |  |  |  |  |  | 374 | 6 | about 6×10^-5 | about 6% | about 6 μM |

From US5141627A, “Chelators whose affinity for calcium ion is increased by illumination” (The Regents of the University of California, priority 1989, dated 1992)
